These results are taken from patent US20220323406A1, “METHODS AND COMPOSITIONS FOR DIFFERENTIATING STEM CELLS” (Massachusetts Institute of Technology, priority 2019, published 2022).

Counter-ions that a name gives are not always drawn.

Test [1] relates to ENR+CD organoids (ISC to Paneth cell differentiation). Kind of test: Primary screen: basal (non-stimulated) lysozyme secretion LYZ.NS, 2.5-D 384-well ENR+CD organoid differentiation. The following applies: primary screen; for Dose.FC.LYZ.NS: FC relative to plate median; for Z.LYZ.NS: standard z score. The test is classed as cell-based, mouse. From the text:
(§1) High-throughput screening.

Another test concerns ENR+CD organoids. Kind of test: Primary screen: ATP (CellTiter-Glo 3D, CTG) cell number/viability, 2.5-D 384-well ENR+CD organoids.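 As to all read-outs here: compounds given at plating and again on day 3 over a 6-day differentiation from ENR+CV stem-cell-enriched precursors, ATP measured on day 6, plate median as control.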 The following applies: primary screen; for Dose.FC.CTG: FC relative to plate median; for Z.CTG: standard z score. On the technique in general: In ATP-based viability assays light output follows the ATP content of the culture.
The test system of test [2] is ENR+CD organoids (ISC to Paneth cell differentiation). The test is described as follows: Primary screen: CCh-stimulated lysozyme secretion LYZ.S, 2.5-D 384-well ENR+CD organoid differentiation. The format is cell-based, mouse. The following applies: primary screen, FC relative to plate median.
Source text: as §1

With `CCCN[C@H]1CCc2nc(N)sc2C1` [Pramipexole], the Dose.FC.LYZ.NS in test [1] (dose 0.08 uM) stood at 0.057 log2 fold change; in test [1] (dose 0.40 uM), 0.027 log2 fold change; in test [1] (dose 2.00 uM), 0.027 log2 fold change; in test [1] (dose 10.00 uM), 0.005 log2 fold change. For the same molecule, the Z.LYZ.NS in test [1] (dose 0.08 uM) worked out at 0.495; in test [1] (dose 0.40 uM), 0.234; in test [1] (dose 2.00 uM) it was 0.239; in test [1] (dose 10.00 uM), 0.043. Besides, the Dose.FC.CTG in the test on ENR+CD organoids (dose 0.08 uM) is on record as 0.109 log2 fold change; with ENR+CD organoids (dose 0.40 uM) it was 0.182 log2 fold change; in the test on ENR+CD organoids (dose 2.00 uM) it was 0.026 log2 fold change; with ENR+CD organoids (dose 10.00 uM), 0.231 log2 fold change. Also, the Dose.FC.LYZ.S was 0.050 log2 fold change in test [2] (dose 0.08 uM), 0.123 log2 fold change in test [2] (dose 0.40 uM), 0.041 log2 fold change in test [2] (dose 2.00 uM) and 0.071 log2 fold change in test [2] (dose 10.00 uM).
Take `CC(C)NCC(O)COc1cccc2ccccc12` (stereo not drawn) [Propranolol HCl]: the Dose.FC.LYZ.NS in test [1] (dose 0.08 uM) is given as 0.048 log2 fold change; in test [1] (dose 0.40 uM) it was 0.074 log2 fold change; in test [1] (dose 2.00 uM), 0.164 log2 fold change; in test [1] (dose 10.00 uM) it was 0.032 log2 fold change. The Z.LYZ.NS came out at 0.418 in test [1] (dose 0.08 uM), 0.642 in test [1] (dose 0.40 uM), 1.427 in test [1] (dose 2.00 uM) and 0.276 in test [1] (dose 10.00 uM). Besides, the Dose.FC.CTG in the test with ENR+CD organoids (dose 0.08 uM) is given as 0.066 log2 fold change; in the test on ENR+CD organoids (dose 0.40 uM), 0.054 log2 fold change; with ENR+CD organoids (dose 2.00 uM) it was 0.117 log2 fold change; in the test on ENR+CD organoids (dose 10.00 uM), 0.168 log2 fold change. Besides, the Dose.FC.LYZ.S in test [2] (dose 0.08 uM) came to 0.173 log2 fold change; in test [2] (dose 0.40 uM), 0.204 log2 fold change; in test [2] (dose 2.00 uM), 0.091 log2 fold change; in test [2] (dose 10.00 uM) it was 0.040 log2 fold change.
`CCc1nc(N)nc(N)c1-c1ccc(Cl)cc1` [Pyrimethamine]: the Dose.FC.LYZ.NS in test [1] (dose 0.08 uM) is listed as −0.005 log2 fold change; in test [1] (dose 0.40 uM), −0.018 log2 fold change; in test [1] (dose 2.00 uM) it was −0.144 log2 fold change; in test [1] (dose 10.00 uM), −0.138 log2 fold change. The Z.LYZ.NS is reported as −0.041 in test [1] (dose 0.08 uM), −0.160 in test [1] (dose 0.40 uM), −1.255 in test [1] (dose 2.00 uM) and −1.199 in test [1] (dose 10.00 uM). In addition, the Dose.FC.CTG is 0.007 log2 fold change in the test on ENR+CD organoids (dose 0.08 uM), −0.259 log2 fold change with ENR+CD organoids (dose 0.40 uM), −0.416 log2 fold change with ENR+CD organoids (dose 2.00 uM) and −0.620 log2 fold change with ENR+CD organoids (dose 10.00 uM). Besides, the Dose.FC.LYZ.S is on record as 0.042 log2 fold change in test [2] (dose 0.08 uM), −0.026 log2 fold change in test [2] (dose 0.40 uM), −0.162 log2 fold change in test [2] (dose 2.00 uM) and −0.282 log2 fold change in test [2] (dose 10.00 uM).
`CC(C)(C)c1cc(NC(=O)Nc2ccc(-c3cn4c(n3)sc3cc(OCCN5CCOCC5)ccc34)cc2)no1` [Quizartinib (AC220)]: the Dose.FC.LYZ.NS in test [1] (dose 0.08 uM) is on record as 0.096 log2 fold change; in test [1] (dose 0.40 uM), 0.039 log2 fold change; in test [1] (dose 2.00 uM) it was −0.052 log2 fold change; in test [1] (dose 10.00 uM), −0.173 log2 fold change. Moreover, the Z.LYZ.NS in test [1] (dose 0.08 uM) was 0.836; in test [1] (dose 0.40 uM), 0.341; in test [1] (dose 2.00 uM), −0.452; in test [1] (dose 10.00 uM) it was −1.505. Further, the Dose.FC.CTG was 0.351 log2 fold change with ENR+CD organoids (dose 0.08 uM), 0.149 log2 fold change with ENR+CD organoids (dose 0.40 uM), −0.352 log2 fold change in the test with ENR+CD organoids (dose 2.00 uM) and −0.644 log2 fold change in the test on ENR+CD organoids (dose 10.00 uM). The Z.CTG in the test on ENR+CD organoids (dose 0.08 uM) was 0.838; in the test with ENR+CD organoids (dose 0.40 uM) it was 0.355; with ENR+CD organoids (dose 2.00 uM), −0.841; with ENR+CD organoids (dose 10.00 uM), −1.539. Further, the Dose.FC.LYZ.S is given as 0.154 log2 fold change in test [2] (dose 0.08 uM), 0.083 log2 fold change in test [2] (dose 0.40 uM), −0.077 log2 fold change in test [2] (dose 2.00 uM) and −0.200 log2 fold change in test [2] (dose 10.00 uM).
`O=C(NCc1cccc(O)c1)Nc1nc(-c2ccncc2)cs1` [RKI-1447]: the Dose.FC.LYZ.NS was −0.006 log2 fold change in test [1] (dose 0.08 uM), −0.092 log2 fold change in test [1] (dose 0.40 uM), −0.009 log2 fold change in test [1] (dose 2.00 uM) and −0.183 log2 fold change in test [1] (dose 10.00 uM). Moreover, the Z.LYZ.NS was −0.055 in test [1] (dose 0.08 uM), −0.803 in test [1] (dose 0.40 uM), −0.077 in test [1] (dose 2.00 uM) and −1.594 in test [1] (dose 10.00 uM). In addition, the Dose.FC.CTG in the test on ENR+CD organoids (dose 0.08 uM) is on record as −0.397 log2 fold change; in the test with ENR+CD organoids (dose 0.40 uM) it was −0.184 log2 fold change; in the test with ENR+CD organoids (dose 2.00 uM), −0.226 log2 fold change; in the test on ENR+CD organoids (dose 10.00 uM) it was −0.342 log2 fold change. The Z.CTG is reported as −0.948 in the test with ENR+CD organoids (dose 0.08 uM), −0.441 with ENR+CD organoids (dose 0.40 uM), −0.540 in the test with ENR+CD organoids (dose 2.00 uM) and −0.816 in the test with ENR+CD organoids (dose 10.00 uM). Moreover, the Dose.FC.LYZ.S in test [2] (dose 0.08 uM) was −0.056 log2 fold change; in test [2] (dose 0.40 uM), −0.064 log2 fold change; in test [2] (dose 2.00 uM), −0.017 log2 fold change; in test [2] (dose 10.00 uM) it was −0.297 log2 fold change.
Regarding `Cc1nnc(C(=O)NC(C)(C)c2nc(C(=O)NCc3ccc(F)cc3)c(O)c(=O)n2C)o1` [Raltegravir (MK-0518)], the Dose.FC.LYZ.NS in test [1] (dose 0.08 uM) is 0.187 log2 fold change; in test [1] (dose 0.40 uM) it was 0.035 log2 fold change; in test [1] (dose 2.00 uM), 0.029 log2 fold change; in test [1] (dose 10.00 uM) it was 0.042 log2 fold change. Moreover, the Z.LYZ.NS in test [1] (dose 0.08 uM) worked out at 1.627; in test [1] (dose 0.40 uM) it was 0.302; in test [1] (dose 2.00 uM), 0.254; in test [1] (dose 10.00 uM), 0.366. For the same molecule, the Dose.FC.CTG with ENR+CD organoids (dose 0.08 uM) worked out at 0.108 log2 fold change; in the test with ENR+CD organoids (dose 0.40 uM) it was 0.094 log2 fold change; in the test with ENR+CD organoids (dose 2.00 uM), 0.197 log2 fold change; in the test on ENR+CD organoids (dose 10.00 uM), 0.170 log2 fold change. Also, the Z.CTG in the test on ENR+CD organoids (dose 0.08 uM) is on record as 0.258; in the test on ENR+CD organoids (dose 0.40 uM) it was 0.224; with ENR+CD organoids (dose 2.00 uM), 0.471; in the test with ENR+CD organoids (dose 10.00 uM), 0.407. The Dose.FC.LYZ.S is given as 0.137 log2 fold change in test [2] (dose 0.08 uM), 0.037 log2 fold change in test [2] (dose 0.40 uM), 0.122 log2 fold change in test [2] (dose 2.00 uM) and 0.183 log2 fold change in test [2] (dose 10.00 uM).
Turning to `CCC(=O)NCC[C@@H]1CCc2ccc3c(c21)CCO3` [Ramelteon], the Dose.FC.LYZ.NS was 0.062 log2 fold change in test [1] (dose 0.08 uM), 0.082 log2 fold change in test [1] (dose 0.40 uM), −0.013 log2 fold change in test [1] (dose 2.00 uM) and 0.007 log2 fold change in test [1] (dose 10.00 uM). For the same molecule, the Z.LYZ.NS in test [1] (dose 0.08 uM) is 0.537; in test [1] (dose 0.40 uM), 0.712; in test [1] (dose 2.00 uM), −0.109; in test [1] (dose 10.00 uM), 0.062. For the same molecule, the Dose.FC.CTG is given as −0.028 log2 fold change with ENR+CD organoids (dose 0.08 uM), 0.155 log2 fold change in the test with ENR+CD organoids (dose 0.40 uM), −0.315 log2 fold change with ENR+CD organoids (dose 2.00 uM) and 0.150 log2 fold change in the test with ENR+CD organoids (dose 10.00 uM). Moreover, the Dose.FC.LYZ.S is 0.030 log2 fold change in test [2] (dose 0.08 uM), 0.103 log2 fold change in test [2] (dose 0.40 uM), −0.009 log2 fold change in test [2] (dose 2.00 uM) and 0.001 log2 fold change in test [2] (dose 10.00 uM).
As for `CNC(=C[N+](=O)[O-])NCCSCc1ccc(CN(C)C)o1` [Ranitidine], the Dose.FC.LYZ.NS was −0.027 log2 fold change in test [1] (dose 0.08 uM), 0.011 log2 fold change in test [1] (dose 0.40 uM), −0.045 log2 fold change in test [1] (dose 2.00 uM) and −0.046 log2 fold change in test [1] (dose 10.00 uM). In addition, the Z.LYZ.NS in test [1] (dose 0.08 uM) is −0.234; in test [1] (dose 0.40 uM) it was 0.095; in test [1] (dose 2.00 uM) it was −0.389; in test [1] (dose 10.00 uM), −0.401. For the same molecule, the Dose.FC.CTG with ENR+CD organoids (dose 0.08 uM) was −0.051 log2 fold change; in the test with ENR+CD organoids (dose 0.40 uM), 0.155 log2 fold change; in the test on ENR+CD organoids (dose 2.00 uM), −0.069 log2 fold change; in the test with ENR+CD organoids (dose 10.00 uM) it was −0.262 log2 fold change. Further, the Dose.FC.LYZ.S in test [2] (dose 0.08 uM) is on record as −0.020 log2 fold change; in test [2] (dose 0.40 uM) it was 0.071 log2 fold change; in test [2] (dose 2.00 uM) it was −0.040 log2 fold change; in test [2] (dose 10.00 uM), −0.043 log2 fold change.
On to `C#CCN[C@@H]1CCc2ccccc21` [Rasagiline Mesylate], for which the Dose.FC.LYZ.NS in test [1] (dose 0.08 uM) is listed as 0.072 log2 fold change; in test [1] (dose 0.40 uM), 0.013 log2 fold change; in test [1] (dose 2.00 uM), 0.048 log2 fold change; in test [1] (dose 10.00 uM), −0.034 log2 fold change. For the same molecule, the Z.LYZ.NS is given as 0.631 in test [1] (dose 0.08 uM), 0.117 in test [1] (dose 0.40 uM), 0.417 in test [1] (dose 2.00 uM) and −0.294 in test [1] (dose 10.00 uM). Besides, the Dose.FC.CTG with ENR+CD organoids (dose 0.08 uM) came to 0.154 log2 fold change; in the test on ENR+CD organoids (dose 0.40 uM) it was 0.103 log2 fold change; with ENR+CD organoids (dose 2.00 uM) it was 0.041 log2 fold change; in the test on ENR+CD organoids (dose 10.00 uM) it was 0.104 log2 fold change. Further, the Dose.FC.LYZ.S came to 0.140 log2 fold change in test [2] (dose 0.08 uM), 0.077 log2 fold change in test [2] (dose 0.40 uM), 0.014 log2 fold change in test [2] (dose 2.00 uM) and 0.026 log2 fold change in test [2] (dose 10.00 uM).
